Literature values as cited in patent US20100069398A1, “Combination therapy” (priority 2004, published 2010).

Tested on: tumour models
Details: once-daily oral administration, range of models

## COc1cc2c(Nc3ccc(Br)cc3F)ncnc2cc1OCC1CCN(C)CC1 [ZD6474, 4-(4-bromo-2-fluoroanilino)-6-methoxy-7-(1-methylpiperidin-4-ylmethoxy)quinazoline]
  anti-tumour activity: broad-spectrum anti-tumour activity
